Like-named read-outs stand apart in the source and are kept apart here.
Legend:
[1] = system: retroviruses
[2] = EP 484,281 and Eur. J. Immunol., 17, 1359 (1987); cited from earlier work

Substance | effect of combination ([1]; combined with AZT, ddl, Saquinavir, Nevirapin, Ritonavir and/or ribavirin) | effect of combination ([1]; combined with Indinavir) | immunosuppressing nature [2]
[(R)-2-(N,N-Dimethylamino)ethylthio-Sar]^3 -[4'-hydroxy-MeLeu]^4 -cyclosporin A [Example 1] | synergistic effect | additive effect | 
[4'-hydroxy-MeLeu]^4 -cyclosporin A |  |  | not immunosuppressing

From patent US5994299A, “Cyclosporin compounds, their preparation and the pharmaceutical compositions which contain them” (Rhone-Poulenc Rorer, S.A., priority 1996, dated 1999)
